# Measurements: patent US9265764B2, “Uses of chemicals to modulate GSK-3 signaling for treatment of bipolar disorder and other brain disorders” (Massachusetts Institute of Technology, priority 2009, dated 2016)
# What was measured:
# human GSK-3β = biological target: T1, human GSK-3β (Homo sapiens, UniProt P49841); assay: in vitro GSK-3β kinase assay (Kinase-Glo luminescence); format: biochemical; details: FIG. 9 dose response, n=4
# T1 construct: Recombinant full-length human GSK-3β (NM_002093) with an N-terminal GST tag; GST (N); purchased BPS Biosciences 40007; host or cells: Sf9 insect cells (baculovirus)
# [1] = test system: amphetamine-induced hyperactivity in C57BL/6J mice; assay: Amphetamine-induced hyperactivity (AIH) in C57BL/6J mice; format: in vivo
# panel of 358 kinases = assay: KINOMEscan active-site dependent competition binding assay; details: 10 μM
# [2] = test system: dopamine transporter (DAT) knockout mice; details: 10 mg/kg; i.p.; cited from earlier work
# [3] = Serum level after systemic administration
# [4] = test system: amphetamine-induced hyperactivity in DBA/2J mice; assay: Lithium-nonresponsive AIH in DBA/2J mice; format: in vivo; details: for effect on AIH: DBA/2J
# [5] = test system: TCF/LEF reporter in HEK293 cells; assay: TCF/LEF reporter assay with lithium; format: cell-based; details: FIG. 12
# [6] = test system: βCat-eGFP reporter in human U2OS cells; assay: Cellular β-catenin stability assay (βCat-eGFP reporter); format: cell-based; details: for β-catenin accumulation: βCat-eGFP reporter assay
# Procedure: Cellular-β-Catenin Stability Assay: To study effects of small molecules on GSK-3/β-catenin signaling in cells, we optimized an image-based assay that measures β-catenin stability. This assay uses human U2OS cells engineered to express a genetically encoded fluorescent reporter consisting of a fusion of β-catenin to enhanced green fluorescent protein (eGFP) that were obtained from Thermo Fisher Scientific (Denmark). […] Lithium treatments at 10 mM and valproic acid at 10 mM also have the same effect in this assay. […] Cells were imaged on an ImageXpress Micro (Molecular Devices) automated microscope at 10× magnification with detection of both DNA and eGFP fluorescence. The percentage of eGFP positive cells was calculated and compared to an untreated control.
# [7] = ICV 1 μl of 0.1, 1.4, 14 μg/μl, FIGS. 16-18
# [8] = intra-striatal infusion, 1 μl of 1.4 μg/μl, FIG. 22
# T1 sequence (P49841 1-433 isoform P49841-2): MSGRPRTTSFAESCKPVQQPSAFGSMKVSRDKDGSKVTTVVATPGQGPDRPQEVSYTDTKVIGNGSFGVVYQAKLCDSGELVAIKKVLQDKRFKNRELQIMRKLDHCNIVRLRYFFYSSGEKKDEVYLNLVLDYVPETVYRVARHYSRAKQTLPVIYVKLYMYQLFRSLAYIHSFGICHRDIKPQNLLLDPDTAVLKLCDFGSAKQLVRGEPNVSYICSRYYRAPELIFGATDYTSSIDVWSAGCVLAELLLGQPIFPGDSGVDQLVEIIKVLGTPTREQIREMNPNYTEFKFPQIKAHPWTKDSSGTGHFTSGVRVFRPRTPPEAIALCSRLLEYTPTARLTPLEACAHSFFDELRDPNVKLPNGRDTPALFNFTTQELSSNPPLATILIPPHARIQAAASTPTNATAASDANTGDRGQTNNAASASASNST
smiles,measurement,setting,value
"CN(C)CCCn1cc(C2=C(c3c[nH]c4ccccc34)C(=O)NC2=O)c2ccccc21 [BIM-I, bisindoylmaleimide I]",IC50,human GSK-3β,~6.9 nM
Cn1cc(C2=C(c3ccc(Cl)cc3Cl)C(=O)NC2=O)c2ccccc21 [SB-216763],effect on AIH,"[1]; 5, 10, 20 mg/kg i.p.",None of these GSK-3 inhibitors showed a significant effect on hyperactivity
same,effect on AIH,[1]; ICV in DMSO vehicle,None of these GSK-3 inhibitors showed a significant effect on hyperactivity
same,Number of Binding Targets (kinases),panel of 358 kinases,31
same,hyperactivity in DAT knockout mice,[2],attenuates hyperactivity
Cc1c[nH]c(-c2cnc(NCCNc3ccc(C#N)cn3)nc2-c2ccc(Cl)cc2Cl)n1 [CHIR-99021],effect on AIH,"[1]; 6.25 mg/kg single dose i.p., FIG. 24",non-effective dose
same,effect on AIH,"[1]; 12.5 mg/kg single dose i.p., FIG. 24",significantly decreased amphetamine-induced hyperactivity
same,effect on AIH,"[1]; 25 mg/kg single dose i.p., FIG. 24",significantly decreased amphetamine-induced hyperactivity
same,effect on AIH,[1]; [7],effective in attenuating AIH to levels comparable to those observed after lithium administration
same,effect on AIH,[1]; [8],almost complete ablation of the amphetamine-induced hyperactivity
same,lowest dose that attenuated AIH,"[1]; systemic (i.p.), C57BL/6J mice",12.5 mg/kg
same,maximum serum level,"[3]; 3.125 mg/kg systemic, extrapolated",3 to 4 µM
same,maximum serum level,"[3]; 3.125 mg/kg systemic, extrapolated, listed as compound of formula 7",about 4 μM
same,maximum serum level,[3]; 12.5 mg/kg systemic,about 15 μM
same,maximum serum level,[3]; 50 mg/kg systemic,about 69 μM
same,effect on AIH,"[4]; 50 mg/kg i.p., FIG. 26",significant attenuation of AIH
same,effect on AIH,"[4]; ICV 0.14 μg (1 μl infusion), FIG. 28",significantly attenuated AIH
same,effect on AIH,"[4]; ICV 1.4 μg (1 μl infusion), FIG. 28",significantly attenuated AIH
same,lowest dose that attenuated AIH,"[4]; systemic (i.p.), DBA/2J mice, FIG. 27",0.78 mg/kg
same,Number of Binding Targets (kinases),panel of 358 kinases,10
same,TCF/LEF reporter signal: effect of addition of lithium,[5]; high concentration of Chir99021,synergistic effect
same,TCF/LEF reporter signal: effect of addition of lithium,[5]; lower concentrations of Chir99021,only an additive effect
CCCC(CCC)C(=O)O [valproic acid],eGFP fluorescence and accumulation of βCat-eGFP reporter,[6]; 10 mM,same effect
COc1ccc(CNC(=O)Nc2ncc([N+](=O)[O-])s2)cc1 [AR-A014418],effect on AIH,"[1]; 9 mg/kg i.p., FIG. 19",None of these GSK-3 inhibitors showed a significant effect on hyperactivity
same,eGFP fluorescence and accumulation of βCat-eGFP reporter,[6]; 20 μM over 20 hrs,dose dependent increase in eGFP fluorescence
CN(C)C[C@@H]1CCn2cc(c3ccccc32)C2=C(C(=O)NC2=O)c2cn(c3ccccc23)CCO1 [ruboxistaurin],effect on AIH,[1]; [7],moderate attenuating effect
same,β-catenin accumulation,[6],able to cause β-catenin accumulation
same,Number of Binding Targets (kinases),panel of 358 kinases,95
Cn1cc(C2=C(c3cn(C4CCN(Cc5ccccn5)CC4)c4ccccc34)C(=O)NC2=O)c2ccccc21 [enzastaurin],effect on AIH,[1]; [7],no effect in AIH
same,effect on AIH,[1]; [8],modestly effective
same,β-catenin accumulation,[6],able to cause β-catenin accumulation
same,Number of Binding Targets (kinases),panel of 358 kinases,75
